Results: patent US9089603B2, “Fluorescent imaging with substituted cyanine dyes” (LI-COR, INC., priority 2010, dated 2015)

Key:
[1] = Photophysical properties (absorption, emission, fluorescence intensity, quantum yield) versus IRDye 800CW; assay type: physicochemical; conditions: for Fl Intensity of X / Fl Intensity of 800 CW, Odyssey / Fl Intensity of X / Fl Intensity of 800 CW, Fluorimeter: 0.1 μM solutions in 1XPBS; for Abs Max PBS / EmMax PBS: in PBS
[2] = IRDye 800CW used as standard; cited from earlier work
[3] = Comparison of dye emission maxima and quenching; assay type: physicochemical; conditions: IRDye 800CW samples, excitation 770 nm; for Peak fluorescence emission intensity: PBS pH 7.4; for Percent Quenching: versus dye-linker standard
Description: Solutions of dye-linker standards and dye-linker-quencher samples were diluted into PBS buffer (pH 7.4) to give a dye-specific absorbance less than 0.2 AU. The fluorescence spectra of each dilution were then taken at a consistent excitation wavelength (670 nm for HETD and 770 nm for IRDye 800CW). The emission spectra were collected from 680-1000 nm for the HETD samples and 780-1000 nm for the IRDye 800CW samples.

[4] = Absorption wavelength of the cyanine dyes in methanol (halo substitution effect); assay type: physicochemical; conditions: Table 2
Source text: [table] Design Principle: We analyzed the properties of a dye scaffold and related compounds and the corresponding substitution effects on the excitation and emission wavelengths. The small size of fluorine is unlikely to produce steric effects, therefore, we explored the electronic effects of fluorine and related substitutions. The Hammett equation (σ-value) is an important tool to understand the electronic effects of the substituents, therefore, we explored the correlation of the wavelength (λMeOH) and the σ-value (vide infra): […]

U87GM cells = test: Immunocytochemical binding, blocking and carboxylate control assay in U87GM cells; assay type: cell-based; conditions: tested up to 5 μM, noted above 2 μM
Description: RGD (Arg-Gly-Asp), the recognition motif used to bind the integrin receptors, was labeled with compound 17. The characteristics of RGD/17 conjugate and the analogous dye carboxylate 16 were evaluated in a cell-based assay.
Immunocytochemical assays provide a tool for screening a compound for specificity of a labeled agent. Binding assays give valuable information on affinity of the labeled agent to the intended target.
Compound 17 was conjugated to the peptide RGD by the general procedure set forth in Example 32.
The cell lines U87GM and PC3MLN4 were assayed. Assays included binding, blocking, and carboxylate control. Serial dilutions of compound 16 were prepared at concentrations of 200-6.25 nM. Blocking was accomplished with unlabeled RGD at concentrations of 10-0.31 μM with the addition of 200 nM compound 17-RGD conjugates in all test wells. The compound 16 was evaluated as a dye control for non-specific binding at relatively high levels from 5-0.16 μM with U87GM cells and 1-0.002 μM with PC3 cells.
In the second round of testing with U87GM cells, concentrations of unlabeled RGD and compound 17/RGD were increased (FIGS. 8A and 8B). Binding assay concentrations utilized 0.8-400 nM while the blocking assay used 0.06-30 μM unlabeled RGD with an addition of 200 nM 17/RGD.

[5] = In vivo clearance imaging in nude mice (Pearl Impulse); conditions: 1 nmole; for Total (signal): 800 channel
Description: Two nude mice were injected with 1 nmole of either compound 16 or IRDye 800CW carboxylate. They were then imaged longitudinally over the next 24 h with the Pearl Impulse imaging system. The results are presented in FIG. 9: in vivo clearance in nudes (FIG. 9A), whole body dorsal views (FIG. 9B), and the rate of clearance (FIG. 9C). The clearance data is presented below in Table 4.

## CC1(C)C(=CC=C2CCCC(C=CC3=[N+](CCCCCC(=O)[O-])c4ccc(S(=O)(=O)[O-])cc4C3(C)C)=C2Oc2ccc(S(=O)(=O)[O-])cc2)N(CCCCS(=O)(=O)[O-])c2ccc(S(=O)(=O)[O-])cc21.[Na+].[Na+].[Na+].[Na+] [IRDye 800CW, reference compound]
[1]
  Fl Intensity of X / Fl Intensity of 800 CW, Odyssey: 100%
  Fl Intensity of X / Fl Intensity of 800 CW, Fluorimeter: 100%
  Abs Max PBS: 775 nm
  EmMax PBS: 790 nm
[2]
  Quantum Yield of the standard: 0.07

## CC1(C)C(/C=C/C2=C(Oc3ccc(S(=O)(=O)[O-])cc3)C(=C/C=C3/N(CCCCS(=O)(=O)[O-])c4ccc(S(=O)(=O)[O-])cc4C3(C)C)/CCC2)=[N+](CCCCCC(=O)NCCOCCOCCOCCOCCOCCOCCOCCOCCOCCOCCOCCNC(=O)CCCCC[N+]2=C(/C=C/C3=C(c4ccccc4F)C(=C/C=C4/N(CCCS(=O)(=O)[O-])c5ccc(N(CCCS(=O)(=O)[O-])CCCS(=O)(=O)[O-])cc5C4(C)C)/CCC3)C(C)(C)c3c2ccc2cc(S(=O)(=O)[O-])ccc32)c2ccc(S(=O)(=O)[O-])cc21.[Na+].[Na+].[Na+].[Na+].[Na+].[Na+] [Compound 39]
[3]
  Peak fluorescence emission intensity: 438981
  Percent Quenching: 65.5%

## CC1(C)C(/C=C/C2=C(Oc3ccc(S(=O)(=O)[O-])cc3)C(=C/C=C3/N(CCCCS(=O)(=O)[O-])c4ccc(S(=O)(=O)[O-])cc4C3(C)C)/CCC2)=[N+](CCCCCC(=O)NCCCOCCOCCOCCCN)c2ccc(S(=O)(=O)[O-])cc21.O=C(O)C(F)(F)F.[Na+].[Na+].[Na+] [Compound 32]
[3]
  Peak fluorescence emission intensity: 1343900

## CC1(C)C(/C=C/C2=C(Oc3ccc(S(=O)(=O)[O-])cc3)C(=C/C=C3/N(CCCCS(=O)(=O)[O-])c4ccc(S(=O)(=O)[O-])cc4C3(C)C)/CCC2)=[N+](CCCCCC(=O)NCCCOCCOCCOCCCNC(=O)CCCCC[N+]2=C(/C=C/C3=C(c4ccccc4F)C(=C/C=C4/N(CCCS(=O)(=O)[O-])c5ccc(N(CCCS(=O)(=O)[O-])CCCS(=O)(=O)[O-])cc5C4(C)C)/CCC3)C(C)(C)c3c2ccc2cc(S(=O)(=O)[O-])ccc32)c2ccc(S(=O)(=O)[O-])cc21.[Na+].[Na+].[Na+].[Na+].[Na+].[Na+] [Compound 38]
[3]
  Peak fluorescence emission intensity: 385983
  Percent Quenching: 71.3%

## CC1(C)C(/C=C/C2=C(Oc3ccc(S(=O)(=O)[O-])cc3)C(=C/C=C3/N(CCCCS(=O)(=O)[O-])c4ccc(S(=O)(=O)[O-])cc4C3(C)C)/CCC2)=[N+](CCCCCC(=O)NCCCCCCNC(=O)CCCCC[N+]2=C(/C=C/C3=C(c4ccccc4F)C(=C/C=C4/N(CCCS(=O)(=O)[O-])c5ccc(N(CCCS(=O)(=O)[O-])CCCS(=O)(=O)[O-])cc5C4(C)C)/CCC3)C(C)(C)c3c2ccc2cc(S(=O)(=O)[O-])ccc32)c2ccc(S(=O)(=O)[O-])cc21.[Na+].[Na+].[Na+].[Na+].[Na+].[Na+] [Compound 37]
[3]
  Peak fluorescence emission intensity: 519267
  Percent Quenching: 61.4%

## CC1(C)C(/C=C/C2=C(Oc3ccc(S(=O)(=O)[O-])cc3)C(=C/C=C3/N(CCCCCC(=O)NCCOCCOCCOCCN=[N+]=[N-])c4ccc(S(=O)(=O)[O-])cc4C3(C)C)/CCC2)=[N+](CCCCS(=O)(=O)[O-])c2ccc(S(=O)(=O)[O-])cc21.[Na+].[Na+].[Na+] [Compound 29, sodium 2-((E)-2-((E)-3-((E)-2-(1-(1-azido-13-oxo-3,6,9-trioxa-12-azaoctadecan-18-yl)-3,3-dimethyl-5-sulfonatoindolin-2-ylidene)ethylidene)-2-(4-sulfonatophenoxy)cyclohex-1-enyl)vinyl)-3,3-dimethyl-1-(4-sulfonatobutyl)-3H-indolium-5-sulfonate]
[3]
  Peak fluorescence emission intensity: 1245060

## CC1(C)C(/C=C/C2=C(Oc3ccc(S(=O)(=O)[O-])cc3)C(=C/C=C3/N(CCCCCC(=O)NCCC(=O)N4Cc5ccccc5C#Cc5ccccc54)c4ccc(S(=O)(=O)[O-])cc4C3(C)C)/CCC2)=[N+](CCCCS(=O)(=O)[O-])c2ccc(S(=O)(=O)[O-])cc21.[Na+].[Na+].[Na+] [Compound 30]
[3]
  Peak fluorescence emission intensity: 1203780

## CC1(C)C(/C=C/C2=C(c3c(F)cc(F)cc3F)C(=C/C=C3/N(CCCS(=O)(=O)[O-])c4ccc(S(=O)(=O)[O-])cc4C3(C)C)/CC(C(=O)O)C2)=[N+](CCCS(=O)(=O)[O-])c2ccc(S(=O)(=O)[O-])cc21.[Na+].[Na+].[Na+] (stereo not shown) [Compound 16]
[4]
  λMeOH: 785 nm
U87GM cells
  Non-specific binding of the dye component alone: Relatively high binding
[5]; 1 Min
  Total (signal): 109682.80
[5]; 17 Min
  Total (signal): 282046.59
[5]; 45 Min
  Total (signal): 286573.94
[5]; 71 Min
  Total (signal): 266647.59
[5]; 190 Min
  Total (signal): 139736.97
[5]; 276 Min
  Total (signal): 76493.30
[5]; 1435 Min
  Total (signal): 1652.69
[5]; nude mice, imaged over 24 h
  Clearance in vivo: good clearance

## CC1(C)C(/C=C/C2=C(c3cccc(F)c3F)C(=C/C=C3/N(CCCCS(=O)(=O)[O-])c4ccc(S(=O)(=O)[O-])cc4C3(C)C)/CCC2)=[N+](CCCCS(=O)(=O)[O-])c2ccc(S(=O)(=O)[O-])cc21.[Na+].[Na+].[Na+] [Compound 62k]
[1]
  Fl Intensity of X / Fl Intensity of 800 CW, Odyssey: 104%
  Fl Intensity of X / Fl Intensity of 800 CW, Fluorimeter: 100%
  Abs Max PBS: 773 nm
  EmMax PBS: 790 nm
[1]; Stnd = IRDye 800CW (QY = 0.07)
  Quantum Yield: 0.060
[1]; in methanol
  Abs Max Methanol: 781 nm

## CC1(C)C(/C=C/C2=C(Oc3ccc(S(=O)(=O)[O-])cc3)C(=C/C=C3/N(CCCCS(=O)(=O)[O-])c4ccc(S(=O)(=O)[O-])cc4C3(C)C)/CCC2)=[N+](CCCCCC(=O)NCCOCCOCCOCCOCCOCCOCCOCCOCCOCCOCCOCCN)c2ccc(S(=O)(=O)[O-])cc21.O=C(O)C(F)(F)F.[Na+].[Na+].[Na+] [IRDye 800CW-PEG11-NH2]
[3]
  Peak fluorescence emission intensity: 1272820
